# Patent US20250049930A1, “PROTAC MOLECULES TARGETING FOXP3 AND USES THEREOF” (CEDARS-SINAI MEDICAL CENTER, priority 2022, published 2025)
# Residues, ends and D or L forms follow the SMILES beside them. *: point of attachment. X1 = O=C1CCC(N2C(=O)c3cccc(*)c3C2=O)C(=O)N1; PEG4 = NCCOCCOCCOCCOCCC(=O)O
# How the values were obtained:
# [1] = target: ternary complex consisting of cereblon, FoxP3, and P-FoxP3 (Homo sapiens, UniProt Q96SW2+Q9BZS1); test: SPR assay, ternary complex cooperativity; format: binding
# Chain of ternary complex consisting of cereblon, FoxP3, and P-FoxP3 (Q96SW2 whole entry): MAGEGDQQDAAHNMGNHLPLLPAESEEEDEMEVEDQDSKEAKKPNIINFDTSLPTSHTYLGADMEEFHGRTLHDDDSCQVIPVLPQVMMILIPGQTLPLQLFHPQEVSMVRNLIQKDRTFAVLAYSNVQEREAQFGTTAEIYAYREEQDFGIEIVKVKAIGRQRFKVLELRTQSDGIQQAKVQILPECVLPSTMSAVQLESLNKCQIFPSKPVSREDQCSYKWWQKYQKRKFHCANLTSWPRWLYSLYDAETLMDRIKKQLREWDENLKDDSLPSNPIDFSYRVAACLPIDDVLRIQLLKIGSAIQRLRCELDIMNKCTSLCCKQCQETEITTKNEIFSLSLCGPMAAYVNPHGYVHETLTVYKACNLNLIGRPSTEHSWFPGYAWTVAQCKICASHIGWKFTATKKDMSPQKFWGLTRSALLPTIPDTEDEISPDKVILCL
# Chain of ternary complex consisting of cereblon, FoxP3, and P-FoxP3 (Q9BZS1 whole entry): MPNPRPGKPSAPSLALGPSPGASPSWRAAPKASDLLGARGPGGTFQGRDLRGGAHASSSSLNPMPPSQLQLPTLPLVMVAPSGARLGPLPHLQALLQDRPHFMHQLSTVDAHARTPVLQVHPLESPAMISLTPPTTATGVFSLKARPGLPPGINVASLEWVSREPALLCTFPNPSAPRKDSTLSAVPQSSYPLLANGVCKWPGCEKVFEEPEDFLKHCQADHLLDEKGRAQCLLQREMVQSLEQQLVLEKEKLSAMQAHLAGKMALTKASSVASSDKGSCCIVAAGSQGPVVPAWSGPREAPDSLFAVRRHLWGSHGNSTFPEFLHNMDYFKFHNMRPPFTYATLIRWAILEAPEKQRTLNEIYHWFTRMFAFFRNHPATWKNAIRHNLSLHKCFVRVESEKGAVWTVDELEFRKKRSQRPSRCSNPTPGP
# Procedure: The SPR assay for ternary complex cooperativity was performed by BOC Sciences who provided the following details: Various concentrations of cereblon were dissolved in water and manually printed onto the 47 nm gold-coated PlexArray Nanocapture Sensor Chip (Plexera Bioscience, Seattle, WA) at 40% humidity. Each concentration was printed in replicate, and each spot contained […] of sample solution. The chip was incubated overnight in 80% humidity at 4° C., and rinsed with 10×PBST for 10 minutes, 1×PBST for 10 minutes, and deionized water twice for 10 minutes. The chip was then blocked with 5% non-fat milk in water overnight, washed as before, and then dried under a stream of nitrogen.
# SPR imaging measurements were performed with PlexAray HT (Plexera Bioscience, Seattle, WA, US). Buffers and samples were injected by a non-pulsatile piston pump into the 30 μL flow cell. […] The signal changes after binding and washing (in AU) are recorded as the assay value. Selected protein-grafted regions in the SPR images were analyzed, and the average reflectivity variations of the chosen areas were plotted as a function of time. Real-time binding signals were recorded and analyzed by Data Analysis Module (DAM, Plexera Bioscience, Seattle, WA, US). […]
# RENCA tumors = test: Subcutaneous RENCA tumor growth in mice; format: in vivo; settings: s.c. RENCA in Balb/C mice, i.p. treatment from day 10, vs saline
# Procedure: Mice: Balb/C mice, 5-8 weeks old, were purchased from Jackson laboratory (Ellsworth, Maine) and housed under pathogen free conditions. All experiments involving animals followed federal and state standards, which include the federal Animal Welfare Act and the NIH guide for the care and use of laboratory animals. The RENCA tumors were generated by subcutaneously injecting 2×10^5 tumor cells into the frank. The day tumor cells were injected was considered day 0. PF (0.1 mmol), PC (0.1 mmol) or P60 (100 ug) was administered i.p. twice a week starting on day 10; αPD1 (200 μg) was administered i.p. twice a week starting on day 5; temsirolimus (15 μg) was administered i.p. every other day, starting on day 10. All drugs were administered throughout the experimental course unless indicated. CD8 cells were depleted with a one-time αCD8 (200 μg) i.p. administration on day 2.
# In cancer, Tregs can suppress the antitumor immune response, which is primarily mediated by CD8+ lymphocytes. Therefore, PF was administered to mice to enhance antitumor immunity and suppress growth of syngeneic mouse kidney cancer, which is considered an immunoresponsive cancer type. Mice tumors were established by injecting RENCA cells subcutaneously in the flank of Balb/C mice (5-7 mice per group). RENCA cells were injected subcutaneously to establish palpable tumors, and 10 days later mice were treated i.p., twice a week throughout the experiment, with PF, PC, P60 or Saline (FIG. 3D). Pomalidomide conjugated to (PEG)4 (PROTAC-control; PC) and P60 served as controls. […] In summary, PF decreased the immunosuppressive function of Tregs in vitro and decreased tumor growth in mice. […]
# All immunotherapies, particularly when multi-drug combinations are involved, may have off-target effects. For example, drugs may have direct effects on the tumor, inhibiting tumor proliferation or inducing tumor apoptosis. Mice tumors were established by injecting RENCA cell subcutaneously in the flank of Balb/C mice (6-8 mice per group). 10 days later, mice were treated with PF twice per week. CD8 lymphocytes were depleted with αCD8 administered i.p. 2 days after injection of tumor cells. Mice in indicated groups received i.p. αPD1, twice a week, starting day 5 (FIG. 5A). Mice in indicated groups received i.p. temsirolimus every other day for 14 days, starting on days 10 (FIG. 5B). Tumor growth was monitored in these groups. […]
compound,measurement,setting,value
"CSCC[C@H](NC(=O)[C@H](C)NC(=O)[C@H](Cc1ccccc1)NC(=O)[C@H](Cc1ccccc1)NC(=O)[C@@H]1CCCN1C(=O)[C@H](Cc1c[nH]c2ccccc12)NC(=O)[C@H](CCSC)NC(=O)[C@H](CCCCN)NC(=O)[C@H](CCCNC(=N)N)NC(=O)[C@H](Cc1ccccc1)NC(=O)[C@H](CO)NC(=O)[C@H](CCC(N)=O)NC(=O)[C@H](Cc1ccccc1)NC(=O)[C@H](CC(=O)O)NC(=O)[C@H](CCCNC(=N)N)NC(=O)CCOCCOCCOCCOCCNc1cccc2c1C(=O)N(C1CCC(=O)NC1=O)C2=O)C(=O)O (stereo partly shown) [PF, Pomalidomide-PEG4-RDFQSFRKMWPFFAM] ({X1-PEG4}-RDFQSFRKMWPFFAM-OH)",Kd,"[1]; SPR, cereblon printed on chip, 25° C., complex of cereblon, P-FoxP3 and recombinant FoxP3, read-out: Equilibrium dissociation constant, KD ternary",434 nM
same,"Cooperativity, a=KD binary/KD ternary","[1]; a>1 positively cooperative, a=1 non-cooperative, a<1 negatively cooperative",2.27
same,"tumor growth, single agent",RENCA tumors,produced a decrease in tumor growth
same,"tumor growth, single agent",RENCA tumors; listed as P-FoxP3,appeared to decrease tumor growth compared to saline control
